Experimental data reported in patent US9796711B2, “Substituted pyrazolo[3,4-b]pyridin-6-carboxylic acids and method of use” (AbbVie S.àr.l., priority 2015, dated 2017).
pEC50: −log10 of the molar value.

Key:
ΔF508-CFTR [1] = target: T1, ΔF508-CFTR (Homo sapiens, UniProt P13569, DEL508-508); assay: CFTR cell surface levels using HRP-tagged ΔF508-CFTR expressing CFBE cells, intrinsic corrector capacity; type: cell-based; conditions: HRP-tagged ΔF508-CFTR expressing CFBE cells, intrinsic corrector capacity (no co-corrector), 33° C., 20 hours; for pEC50: read-out: EC50
T1 construct: host or cells: CFBE41o-, doxycycline-inducible
T1 sequence (P13569 with tags, fused parts or gaps DEL508-508): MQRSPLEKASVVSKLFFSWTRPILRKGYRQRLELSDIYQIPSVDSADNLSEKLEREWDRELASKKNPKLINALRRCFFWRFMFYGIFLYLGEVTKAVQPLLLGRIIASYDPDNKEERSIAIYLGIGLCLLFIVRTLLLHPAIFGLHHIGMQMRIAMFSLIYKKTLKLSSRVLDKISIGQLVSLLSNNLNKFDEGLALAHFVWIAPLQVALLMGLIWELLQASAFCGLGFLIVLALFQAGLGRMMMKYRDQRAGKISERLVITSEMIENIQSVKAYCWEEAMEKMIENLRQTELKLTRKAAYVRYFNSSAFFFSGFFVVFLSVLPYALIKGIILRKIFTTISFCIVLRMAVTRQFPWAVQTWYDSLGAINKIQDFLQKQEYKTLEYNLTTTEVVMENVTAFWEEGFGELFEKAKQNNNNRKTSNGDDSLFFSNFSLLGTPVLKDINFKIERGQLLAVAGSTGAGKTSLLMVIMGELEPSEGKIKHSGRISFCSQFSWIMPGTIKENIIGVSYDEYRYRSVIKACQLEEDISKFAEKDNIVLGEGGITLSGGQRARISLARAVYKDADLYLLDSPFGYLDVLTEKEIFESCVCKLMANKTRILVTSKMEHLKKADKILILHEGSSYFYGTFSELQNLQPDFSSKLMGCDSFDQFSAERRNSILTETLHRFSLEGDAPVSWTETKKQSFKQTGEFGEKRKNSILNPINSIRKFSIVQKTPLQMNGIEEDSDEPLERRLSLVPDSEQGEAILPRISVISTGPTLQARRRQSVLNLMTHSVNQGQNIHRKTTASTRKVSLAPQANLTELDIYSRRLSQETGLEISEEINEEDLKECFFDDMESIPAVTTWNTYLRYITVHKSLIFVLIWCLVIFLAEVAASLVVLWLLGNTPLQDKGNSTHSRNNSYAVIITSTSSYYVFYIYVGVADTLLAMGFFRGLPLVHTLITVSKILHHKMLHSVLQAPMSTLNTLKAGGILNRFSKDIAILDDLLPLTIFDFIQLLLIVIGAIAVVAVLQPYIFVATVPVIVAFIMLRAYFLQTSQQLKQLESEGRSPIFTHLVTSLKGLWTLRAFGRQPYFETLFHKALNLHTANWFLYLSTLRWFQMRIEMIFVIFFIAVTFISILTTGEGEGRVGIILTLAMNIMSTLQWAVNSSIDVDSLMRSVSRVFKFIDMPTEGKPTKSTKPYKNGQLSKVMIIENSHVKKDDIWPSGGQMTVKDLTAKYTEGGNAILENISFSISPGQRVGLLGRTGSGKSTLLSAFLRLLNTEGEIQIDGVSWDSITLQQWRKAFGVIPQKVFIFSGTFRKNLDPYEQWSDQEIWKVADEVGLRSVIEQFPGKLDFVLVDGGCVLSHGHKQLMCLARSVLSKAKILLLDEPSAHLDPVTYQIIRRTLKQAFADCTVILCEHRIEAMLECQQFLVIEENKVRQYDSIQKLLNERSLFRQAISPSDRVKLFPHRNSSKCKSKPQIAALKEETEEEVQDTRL
Method in brief: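 Here the cells express ΔF508-CFTR with horseradish peroxidase inserted in extracellular loop 4, so only rescued channel at the surface gives luminescent signal. Compounds act on their own, 20 h at the reduced temperature of 33 °C; values are percent activity relative to DMSO and a 3 μM corrector.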

ΔF508-CFTR [2] = target: T1, ΔF508-CFTR; assay: CFTR cell surface levels using HRP-tagged ΔF508-CFTR expressing CFBE cells, in the presence of a co-corrector; type: cell-based; conditions: HRP-tagged ΔF508-CFTR expressing CFBE cells, in the presence of 3 μM co-corrector; for pEC50: read-out: EC50
Method in brief: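 Cells were seeded with 0.5 μg/mL doxycycline and held 68 h at 37 °C. Test compounds plus 3 μM co-corrector (final 0.1% DMSO) were then added for 20 h at 33 °C. Washed cells received HRP substrate, and luminescence was normalized between DMSO and 3 μM co-corrector controls.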

| Compound | % Activation (ΔF508-CFTR [1]) [%] | pEC50 (ΔF508-CFTR [1]) | % Activation (ΔF508-CFTR [2]) [%] | pEC50 (ΔF508-CFTR [2]) |
| --- | --- | --- | --- | --- |
| CCOCC1(F)CCN(c2cc(C(=O)O)nc3c2c(C2CCC2)nn3-c2ccccc2)C1 (centres unmarked) [compound 510, 3-cyclobutyl-4-[3-(ethoxymethyl)-3-fluoropyrrolidin-1-yl]-1-phenyl-1H-pyrazolo[3,4-b]pyridine-6-carboxylic acid] | 99.8 | 5.95 | 313.2 | 6.40 |
| CC1(CO)CN(c2cc(C(=O)O)nc3c2c(C2CCC2)nn3-c2ccccc2)C1 [compound 511, 3-cyclobutyl-4-[3-(hydroxymethyl)-3-methylazetidin-1-yl]-1-phenyl-1H-pyrazolo[3,4-b]pyridine-6-carboxylic acid] | 56.48 | 5.48 | 214.6 | 5.99 |
| CO[C@H]1CCN(c2cc(C(=O)O)nc3c2c(C2CCC2)nn3-c2ccccc2)C1 [compound 512, 3-cyclobutyl-4-[(3S)-3-methoxypyrrolidin-1-yl]-1-phenyl-1H-pyrazolo[3,4-b]pyridine-6-carboxylic acid] | 103 | 5.93 | 286.4 | 5.85 |
| O=C(O)c1cc(N2CC(OCC(F)F)C2)c2c(C3CCC3)nn(-c3ccccc3)c2n1 [compound 513, 3-cyclobutyl-4-[3-(2,2-difluoroethoxy)azetidin-1-yl]-1-phenyl-1H-pyrazolo[3,4-b]pyridine-6-carboxylic acid] | 141.7 | 6.43 | 349.6 | 6.33 |
| O=C(O)c1cc(N2C[C@@H](F)C[C@@H]2CO)c2c(C3CCC3)nn(-c3ccccc3)c2n1 [compound 514, 3-cyclobutyl-4-[(2R,4S)-4-fluoro-2-(hydroxymethyl)pyrrolidin-1-yl]-1-phenyl-1H-pyrazolo[3,4-b]pyridine-6-carboxylic acid] | 37.34 | 5.48 | 178.2 | 5.48 |
| O=C(O)c1cc(N2CCN3C[C@@H](F)C[C@H]3C2)c2c(C3CCC3)nn(-c3ccccc3)c2n1 [compound 515, 3-cyclobutyl-4-[(7S,8aS)-7-fluorohexahydropyrrolo[1,2-a]pyrazin-2(11/)-yl]-1-phenyl-1H-pyrazolo[3,4-b]pyridine-6-carboxylic acid] | 15.59 | < 5.00 | 173.5 | 5.48 |
| CN1C(=O)CO[C@H]2CN(c3cc(C(=O)O)nc4c3c(C3CCC3)nn4-c3ccccc3)C[C@@H]21 [compound 516, 3-cyclobutyl-4-[(4aS,7aS)-4-methyl-3-oxohexahydropyrrolo[3,4-b][1,4]oxazin-6 (2H)-yl]-1-phenyl-1H-pyrazolo[3,4-b]pyridine-6-carboxylic acid] | 123.4 | 5.95 | 275.5 | 6.14 |
| O=C(O)c1cc(N2CCC(F)(CO)CC2)c2c(C3CCC3)nn(-c3ccccc3)c2n1 [compound 517, 3-cyclobutyl-4-[4-fluoro-4-(hydroxymethyl)piperidin-1-yl]-1-phenyl-1H-pyrazolo[3,4-b]pyridine-6-carboxylic acid] | 82.63 | 6.19 | 303.2 | 6.24 |
| O=C(O)c1cc(N2CCC3(CCCO3)C2)c2c(C3CCC3)nn(-c3ccccc3)c2n1 (centres unmarked) [compound 518, 3-cyclobutyl-4-(1-oxa-7-azaspiro[4.4]nonan-7-yl)-1-phenyl-1H-pyrazolo[3,4-b]pyridine-6-carboxylic acid] | 62.95 | 6.43 | 237 | 6.27 |
| CS(=O)(=O)NC1CCN(c2cc(C(=O)O)nc3c2c(C2CCC2)nn3-c2ccccc2)CC1 [compound 519, 3-cyclobutyl-4-{4-[(methanesulfonyl)amino]piperidin-1-yl}-1-phenyl-1H-pyrazolo[3,4-b]pyridine-6-carboxylic acid] | 149.3 | 5.48 | 340.6 | 5.48 |
| O=C(O)c1cc(N2CCC(C(F)CO)CC2)c2c(C3CCC3)nn(-c3ccccc3)c2n1 (centres unmarked) [compound 520, 3-cyclobutyl-4-[4-(1-fluoro-2-hydroxyethyl)piperidin-1-yl]-1-phenyl-1H-pyrazolo[3,4-b]pyridine-6-carboxylic acid] | 213.9 | 6.23 | 450.25 | 6.62 |
| COCC1(C)CN(c2cc(C(=O)O)nc3c2c(C2CCC2)nn3-c2ccccc2)C1 [compound 521, 3-cyclobutyl-4-[3-(methoxymethyl)-3-methylazetidin-1-yl]-1-phenyl-1H-pyrazolo[3,4-b]pyridine-6-carboxylic acid] | 58.57 | 6.31 | 216.55 | 6.54 |
| CO[C@@H]1CCN(c2cc(C(=O)O)nc3c2c(C2CCC2)nn3-c2ccccc2)C1 [compound 522, 3-cyclobutyl-4-[(3R)-3-methoxypyrrolidin-1-yl]-1-phenyl-1H-pyrazolo[3,4-b]pyridine-6-carboxylic acid] | 114 | 6.32 | 294.1 | 5.97 |
| CS(=O)(=O)N1CCN(c2cc(C(=O)O)nc3c2c(C2CCC2)nn3-c2ccccc2)CC1 [compound 523, 3-cyclobutyl-4-[4-(methanesulfonyl)piperazin-1-yl]-1-phenyl-1H-pyrazolo[3,4-b]pyridine-6-carboxylic acid] | 136.2 | 5.55 | 320.1 | 6.20 |
| COCCN(CCOC)c1ccc(-c2cc(C(=O)O)nc3c2c(C(C)C)nn3-c2ccnc(N3CCOCC3)c2)cn1 [compound 524, 4-{6-[bis(2-methoxyethyl)amino]pyridin-3-yl}-1-[2-(morpholin-4-yl)pyridin-4-yl]-3-(propan-2-yl)-1H-pyrazolo[3,4-b]pyridine-6-carboxylic acid] | 134.7 | 6.34 | 354.25 | 6.58 |
| COCC1CCN(c2cc(C(=O)O)nc3c2c(C(C)C)nn3-c2ccnc(N3CCOCC3)c2)CC1 [compound 525, 4-[4-(methoxymethyl)piperidin-1-yl]-1-[2-(morpholin-4-yl)pyridin-4-yl]-3-(propan-2-yl)-1H-pyrazolo[3,4-b]pyridine-6-carboxylic acid] | 232.2 | 6.38 | 311.3 | 6.03 |
| COCC1(OC)CCN(c2cc(C(=O)O)nc3c2c(C2CCC2)nn3-c2ccccc2)CC1 [compound 526, 3-cyclobutyl-4-[4-methoxy-4-(methoxymethyl)piperidin-1-yl]-1-phenyl-1H-pyrazolo[3,4-b]pyridine-6-carboxylic acid] | 97.7 | 6.39 | 284.5 | 6.43 |
| O=C(O)c1cc(N2CC[C@H](F)C2)c2c(C3CCC3)nn(-c3ccccc3)c2n1 [compound 527, 3-cyclobutyl-4-[(3S)-3-fluoropyrrolidin-1-yl]-1-phenyl-1H-pyrazolo[3,4-b]pyridine-6-carboxylic acid] | 100.1 | 5.93 | 291.2 | 5.99 |
| O=C(O)c1cc(N2CC(F)(F)C2)c2c(C3CCC3)nn(-c3ccccc3)c2n1 [compound 528, 3-cyclobutyl-4-(3,3-difluoroazetidin-1-yl)-1-phenyl-1H-pyrazolo[3,4-b]pyridine-6-carboxylic acid] | 80.74 | 5.48 | 209.2 | 5.71 |
| O=C(O)c1cc(N2CC(N3CCOC3=O)C2)c2c(C3CCC3)nn(-c3ccccc3)c2n1 [compound 529, 3-cyclobutyl-4-[3-(2-oxo-1,3-oxazolidin-3-yl)azetidin-1-yl]-1-phenyl-1H-pyrazolo[3,4-b]pyridine-6-carboxylic acid] | 5.039 | < 5.00 | 126.7 | < 5.00 |
| CCC1(F)CN(c2cc(C(=O)O)nc3c2c(C2CCC2)nn3-c2ccccc2)C1 [compound 530, 3-cyclobutyl-4-(3-ethyl-3-fluoroazetidin-1-yl)-1-phenyl-1H-pyrazolo[3,4-b]pyridine-6-carboxylic acid] | 90.17 | 6.14 | 254.15 | 6.27 |
| O=C(O)c1cc(N2CCOC(CO)C2)c2c(C3CCC3)nn(-c3ccccc3)c2n1 (centres unmarked) [compound 531, 3-cyclobutyl-4-[2-(hydroxymethyl)morpholin-4-yl]-1-phenyl-1H-pyrazolo[3,4-b]pyridine-6-carboxylic acid] | 91.66 | 5.48 | 223.4 | 5.84 |
| COCCOCC1(F)CCN(c2cc(C(=O)O)nc3c2c(C2CCC2)nn3-c2ccccc2)C1 (centres unmarked) [compound 532, 3-cyclobutyl-4-{3-fluoro-3-[(2-methoxyethoxy)methyl]pyrrolidin-1-yl}-1-phenyl-1H-pyrazolo[3,4-b]pyridine-6-carboxylic acid] | 107.05 | 6.15 | 271.77 | 6.46 |
